Reference: article PMC6562610, “Inhibition of Hedgehog Signaling in Fibroblasts, Pancreatic, and Lung Tumor Cells by Oxy186, an Oxysterol Analogue with Drug-Like Properties” (Cells, 2019)

Assays:
PANC-1 cells = assay: Cell counting assay, PANC-1; assay type: cell-based, human; details: 96 h
Method: A549 and H2030 cells cultured in 12-well plates at 20% confluence were treated with Oxy186, HPI-1, Gant61, or GDC0449 for 96 hours and then trypsinized and suspended in fresh medium. An aliquot of cell suspension was applied to a hemocytometer and counted under a microscope.
Figure 6 Inhibition of human pancreatic and lung cancer cell proliferation by Oxy186. (a,c) A549, (b) and (d) H2030, (e) PANC-1, and (f) CAPAN-1 cells were treated with the compounds as indicated in RPMI 1640 (a–d) or DMEM (e,f) containing 5% FBS for 96 h and then were trypsinized and counted. Data from a representative experiment are reported as the mean of triplicate determinations ± SD (* p < 0.05 vs. Control; ** p < 0.01 vs. control).

[1] = Metabolic stability in human liver microsomes; assay type: in vitro ADME

## C[C@]12CC[C@H](O)C[C@@H]1CC[C@@H]1[C@@H]2CC[C@@]2(C)[C@H]1CC[C@@H]2[C@](C)(O)CCc1ccc(F)cc1 [Oxy186, (3S,5S,8R,9S,10S,13S,14S,17S)-17-((R)-4-(4-fluorophenyl)-2-hydroxybutan-2-yl)-10,13-dimethylhexadecahydro-1H-cyclopenta[a]phenanthren-3-ol]
PANC-1 cells
  Anti-proliferation effect: significant anti-proliferation effects
[1]
  HLM, Half-Life: 45 min
[1]; 60 min, read-out: HLM, % Remaining after 60 min
  remaining at 1 h: 40%
[1]; human, liver microsomes, read-out: HLM, Half-Life
  half-life: 43 min
